Reference: ChEMBL document CHEMBL1909046, “DrugMatrix in vitro pharmacology data”

What was measured:
[1] = biological target: T1, Alpha-2A adrenergic receptor (Homo sapiens, UniProt P08913); assay type: cell membranes, Sf9, Membrane; also: in other assays of this panel Not Active means under 50% inhibition at 10 µM
T1 sequence (P08913 whole entry): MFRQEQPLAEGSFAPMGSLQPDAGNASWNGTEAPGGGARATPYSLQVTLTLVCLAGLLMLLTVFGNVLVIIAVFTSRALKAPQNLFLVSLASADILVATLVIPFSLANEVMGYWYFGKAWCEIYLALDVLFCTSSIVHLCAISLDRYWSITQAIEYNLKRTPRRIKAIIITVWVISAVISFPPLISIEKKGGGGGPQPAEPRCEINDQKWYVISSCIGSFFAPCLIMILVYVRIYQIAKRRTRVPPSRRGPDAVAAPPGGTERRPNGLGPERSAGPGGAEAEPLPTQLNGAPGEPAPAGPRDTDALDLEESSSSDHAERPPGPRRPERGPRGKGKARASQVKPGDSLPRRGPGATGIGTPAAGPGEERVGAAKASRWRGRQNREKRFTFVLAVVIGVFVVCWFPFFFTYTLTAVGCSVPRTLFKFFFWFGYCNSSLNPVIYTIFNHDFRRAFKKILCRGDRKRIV

[2] = DRUGMATRIX: Serotonin (5-Hydroxytryptamine) 5-HT3 radioligand binding (ligand: [3H] GR-65630); assay type: cell membranes, Membrane; details: hek293; Not Active = under 50% inhibition at 10 µM
[3] = biological target: 5-hydroxytryptamine receptor 4 (Cavia porcellus, UniProt O70528); assay type: cell membranes, Dunkin-Hartley, Striatum, Membrane; also: in other assays of this panel Not Active means under 50% inhibition at 10 µM
Sequence of 5-hydroxytryptamine receptor 4 (O70528 whole entry): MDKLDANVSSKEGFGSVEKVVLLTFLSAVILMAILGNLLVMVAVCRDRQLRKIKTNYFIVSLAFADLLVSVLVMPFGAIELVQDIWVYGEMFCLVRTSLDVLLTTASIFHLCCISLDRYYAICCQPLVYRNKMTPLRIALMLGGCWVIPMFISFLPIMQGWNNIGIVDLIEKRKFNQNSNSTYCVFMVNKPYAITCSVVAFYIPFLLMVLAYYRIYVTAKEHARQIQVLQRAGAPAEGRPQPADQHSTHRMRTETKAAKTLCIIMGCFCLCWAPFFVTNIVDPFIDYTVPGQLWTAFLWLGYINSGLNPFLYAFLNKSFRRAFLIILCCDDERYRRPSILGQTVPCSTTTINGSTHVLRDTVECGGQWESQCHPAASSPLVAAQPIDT

[4] = biological target: T2, C-X-C chemokine receptor type 1 (Homo sapiens, UniProt P25024); also: in other assays of this panel Not Active means under 50% inhibition at 10 µM
T2 sequence (P25024 whole entry): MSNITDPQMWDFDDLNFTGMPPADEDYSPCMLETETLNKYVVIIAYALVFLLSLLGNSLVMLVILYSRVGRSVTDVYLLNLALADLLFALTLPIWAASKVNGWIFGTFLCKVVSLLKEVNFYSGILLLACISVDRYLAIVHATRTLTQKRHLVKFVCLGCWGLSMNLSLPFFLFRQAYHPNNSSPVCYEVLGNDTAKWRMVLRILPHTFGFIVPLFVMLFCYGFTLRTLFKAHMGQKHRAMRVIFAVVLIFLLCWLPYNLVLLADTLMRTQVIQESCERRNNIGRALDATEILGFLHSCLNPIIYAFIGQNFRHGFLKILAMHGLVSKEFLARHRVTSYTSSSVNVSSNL

[5] = biological target: Prostaglandin G/H synthase 1 (Homo sapiens, UniProt P23219); assay: biochemical; assay type: tissue-based, Platelet; details: platelet;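 also: inhibition of COX-1 enzyme activity, with arachidonic acid supplied as substrate; in other assays of this panel Not Active means under 50% inhibition at 10 µM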
Sequence of Prostaglandin G/H synthase 1 (P23219 whole entry): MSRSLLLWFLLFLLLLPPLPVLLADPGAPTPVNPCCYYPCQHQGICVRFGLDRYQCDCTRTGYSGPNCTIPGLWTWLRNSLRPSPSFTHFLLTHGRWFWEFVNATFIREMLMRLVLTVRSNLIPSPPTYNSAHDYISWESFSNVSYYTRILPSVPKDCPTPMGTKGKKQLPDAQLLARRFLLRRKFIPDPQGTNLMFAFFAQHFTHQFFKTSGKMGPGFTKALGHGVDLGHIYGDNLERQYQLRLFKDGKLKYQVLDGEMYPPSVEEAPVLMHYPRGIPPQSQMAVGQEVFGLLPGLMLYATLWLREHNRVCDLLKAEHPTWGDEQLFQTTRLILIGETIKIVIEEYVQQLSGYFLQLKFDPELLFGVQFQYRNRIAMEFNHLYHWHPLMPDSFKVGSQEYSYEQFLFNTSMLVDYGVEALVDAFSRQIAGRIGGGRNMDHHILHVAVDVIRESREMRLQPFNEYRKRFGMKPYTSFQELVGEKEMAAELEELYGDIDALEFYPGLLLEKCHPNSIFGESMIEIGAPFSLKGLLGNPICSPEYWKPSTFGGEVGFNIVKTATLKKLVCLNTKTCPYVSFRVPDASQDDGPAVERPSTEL

Adenosine receptor A3 = biological target: T3, Adenosine receptor A3 (Homo sapiens, UniProt P0DMS8); assay type: cell membranes, CHO-K1, Membrane; details: cho-k1
T3 sequence (P0DMS8 whole entry): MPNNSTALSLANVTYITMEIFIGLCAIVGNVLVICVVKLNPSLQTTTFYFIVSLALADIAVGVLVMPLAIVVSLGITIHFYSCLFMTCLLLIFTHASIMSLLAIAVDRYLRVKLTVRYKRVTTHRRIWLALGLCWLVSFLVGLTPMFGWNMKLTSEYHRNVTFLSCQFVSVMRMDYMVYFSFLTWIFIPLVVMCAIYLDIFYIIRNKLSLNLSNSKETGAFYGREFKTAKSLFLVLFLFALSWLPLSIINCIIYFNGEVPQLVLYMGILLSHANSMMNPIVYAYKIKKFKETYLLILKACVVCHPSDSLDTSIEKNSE

Compound | IC50 ([1]; read-out: IC50) [nM] | Ki ([1]; read-out: Ki) [nM] | IC50 [2] | Ki [2] | IC50 [3] | IC50 [4] | IC50 [5] | IC50 (Adenosine receptor A3) | IC50 ([1]; sf9) | Ki ([1]; sf9) | Ki [3] | Ki [4] | Ki [5] | Ki (Adenosine receptor A3)
CCN(CC)CCCC(C)Nc1c2ccc(Cl)cc2nc2ccc(OC)cc12 (stereo not drawn) [QUINACRINE] | 2280 | 855 | Not Active | Not Active | Not Active | Not Active | Not Active | Not Active |  |  |  |  |  | 
C[C@]12C=CC(=O)C=C1CC[C@H]1[C@@H]3C[C@@H](O)[C@](O)(C(=O)CO)[C@@]3(C)C[C@H](O)[C@@]12F [TRIAMCINOLONE] |  |  | Not Active | Not Active | Not Active | Not Active | Not Active | Not Active | Not Active |  |  |  |  | 
CC[C@]1(O)C[C@@H]2CN(CCc3c([nH]c4ccccc34)[C@@](C(=O)OC)(c3cc4c(cc3OC)N(C)[C@H]3[C@@](O)(C(N)=O)[C@H](O)[C@]5(CC)C=CCN6CC[C@]43[C@@H]65)C2)C1 [VINDESINE] |  |  | Not Active | Not Active | Not Active | Not Active | Not Active | Not Active | Not Active |  |  |  |  | 
CCN(C(C)=O)c1cccc(-c2ccnc3c(C#N)cnn23)c1 [ZALEPLON] |  |  | Not Active | Not Active | Not Active | Not Active | Not Active | Not Active | Not Active |  |  |  |  | 
COBALTOUS CHLORIDE |  |  | Not Active | Not Active | Not Active | Not Active | Not Active | Not Active | Not Active | Not Active | Not Active | Not Active | Not Active | Not Active
COLISTIN |  |  | Not Active | Not Active | Not Active | Not Active | Not Active | Not Active | Not Active | Not Active | Not Active | Not Active | Not Active | Not Active
